Here are results for one substance from patent US20090105149A1, “Compounds comprising lpa” (ENKAM PHARMACEUTICALS A/S, priority 2003, published 2009).

The test system of experiment [1] is rat pups. Description: Surface Righting Reflex in rat pups. In kind it is in vivo. The following applies: intranasal 2.6 μg per pup at PND 1, 2, 3. On the procedure: The number of litters of each treatment group was six. […] FGLcontrol as above.
Dose-Response study. The effect of intranasal administration of 0.026, 0.26 and 2.6 μg FGLd per day at post-natal day (PND) 1, 2 and 3 on performance of the Surface Righting Reflex by rat pups was evaluated.
(§1) Sensory Motor Control Development study.

Experiment [2] relates to rats treated with (25-35) β-amyloid fragment. Description: Social Recognition test, (25-35) β-amyloid fragment rat model. In kind it is in vivo. The note with it: days 7, 10, 13. On the procedure: The results are from the experiment in which the suboccipital administration of 5.0 μg FGL per administration per rat was done at days 7, 10, and 13 after A-β-induced neurotoxicity. […] The number of animals in the groups varied from 4 to 22. The results were analysed using one-way ANOVA (F(2,27)=15.4, P<0.0001) and significance of results was contingent on achieving a p-value of less than 0.05 (**p<0.01), when compared to the A-β/V group (Newman-Keuls post-test). […] FGLcontrol as above.
[…] The number of animals per group varied from 4 to 5. The results were analysed using unpaired t-test and significance of results was contingent on achieving a p-value of less than 0.05 (*p<0.05), when compared to the A-β/N group. […]
The present study employed a rat model, in which neurotoxicity and cognitive impairment were induced by the (25-35) β-amyloid peptide fragment (see Maurice T., et al. (1996) (Brain Res. 706:181-93) and Delobette S., et al. (1997) Eur J Pharmacol. 319:1-4). […] Short-term memory deficit in rats was evaluated using three different behavioural tests: the Social Recognition (Kogan et al, (2000) Hippocampus 10:47-56), Open Field (Cerbone and Sadile, (1994) Neurosci Biobehav Rev. 18:497-518; Vianna et al, (2000) Learn Mem. 7:333-40) and Y-maze (Clayton & Williams, (2000) Neurobiol Learn Mem. 74:135-45) tests. […]

A further experiment has as its system adult male Wistar rats. Description: Contextual Fear Conditioning test. The note with it: 5 μg immediately after training. In kind it is in vivo, rat. The source says: In the Contextual Fear Conditioning test, rats experienced inescapable shocks when exposed to a *new environment, which results in the development of a conditioned fear response, consisting of a characteristic immobility or ‘freezing response’, when subsequently re-exposed to the same environment.
The rats were handled for 120 seconds every day for 3 days preceding the first day of the experiment. On day 1 (training), the rats received a 1-second shock (unconditioned stimuli) each minute for two minutes. Animals were injected immediately after training with 5 μl FGLd (5 μg), the control peptide (5 μg) or the vehicle. Each treatment group consisted of 11-14 rats. In total, 39 animals were evaluated. Animals were tested on days 2, 7 and 30 by placing them in the chamber used for conditioning, but in the absence of a shock, for 8 minutes. Each rat was rated as either “freezing” or “active”, every 2 seconds, using a time-sampling procedure.

A further experiment has as its system dopaminergic neurons. Description: Survival of dopaminergic neurons exposed to 6-OHDA. In kind it is cell-based, rat. On the procedure:
Dopaminergic neurons (DN) (a and b) from day 15 rat embryos grown at a density of 150,000 cells/cm^2 for six days without or with various concentrations of peptide on 24-well cell culture plates coated with poly-D-lysine were exposed to 100 μM 6-OHDA for two hours. Medium was changed and various concentrations of FGLd were added. The neurons were grown for another 24 hours before the cultures they were fixed and immunostained for tyrosine hydroxylase.
Dopaminergic neurons were prepared from Wistar rat embryos at embryonic day 15 (Charles River, Sulzfeld, Germany or Møllegaard, Denmark). A pregnant rat was sacrificed and the uterus was taken out and kept on ice in Hank's balanced salt solution (HBSS; Gibco, BRL). The ventral part of the mesencephalon was dissected from the embryonic brains, homogenised on ice in Gey's balanced salt solution (GBSS; Gibco, BRL) supplemented with 5 g glucose/l (Sigma-Aldrich) and thereafter trypsinised. The dissociated cells were washed in the presence of DNAse 1 and soybean trypsin inhibitor (Sigma-Aldrich).
For the survival assay isolated neurons were seeded at a density of 150,000 cells/cm^2 in 24-well cell culture plates coated with poly-D-lysine as described above. The neurons were left to differentiate for six days without or with various concentrations of the FGL peptide, after which 6-OHDA was added at a concentration of 100 μM for two hours. A stock solution was prepared by dissolving 6-OHDA to a concentration of 10 mM in 0.1% (w/v) sodium metabisulfite in order to prevent oxidation. After two hours with 6-OHDA, the medium was changed to Neurobasal medium with supplements and peptide, and the cell cultures were further incubated for 24 hours, fixed and immunostained for tyrosine hydroxylase. 98 images for each experimental condition in each individual experiment were automatically recorded as described for the dopaminergic neurite outgrowth assay below.

Experiment [3] concerns rat pups. Description: Negative Geotaxis Reflex in rat pups. In kind it is in vivo. The note with it: PND 6; intranasal 2.6 μg per pup at PND 1, 2, 3. On the procedure: The number of litters of each treatment group was six. The results were analysed using one-way ANOVA (FPND6=5.14; PPND6=0.008). […] FGLcontrol as above.
as §1

Marks after values point to notes of the source that are not given here.

For the substance “FGLd: MAP-type dendrimer of FGL; dendrimeric tetramer of the FGL peptide (EVYVVAENQQGKSKA)”, the “Surface Righting Reflex test, significance vs control and FGLcontrol groups” value in the experiment with rat pups [1] (PND4, P<0.05) was “statistically significant effect”. For the same substance, in the experiment on rat pups [1] (PND 5, vehicle 3.4), the “Surface Righting Reflex performance” value turned out to be 1.3 s. In experiment [2] (Study 1, sub-occipital, tested at day 14), the “Social Recognition test” value is given as “No effect”. The “Social Recognition test, time exploring a juvenile rat during the second trial” value in experiment [2] (Study 2, sub-occipital 5 μg, vs β-amyloid fragment only) is listed as “significantly reduced the increased time spent”. In addition, the “percentage of freezing time” value in the experiment on adult male Wistar rats (day 2 after conditioning, control 50.5%) was 73.5%; in the experiment on adult male Wistar rats (day 7 after conditioning, control 30.0%), 60.3%. Moreover, in the experiment with dopaminergic neurons (6-OHDA, DA (E14), 1 μg/mL), the “Neuronal Survival (% of Control)” value is recorded as 143%* % of Control. The “survival of dopaminergic neurons treated with 6-OHDA, maximal rescue” value in the experiment on dopaminergic neurons (at 1 μg/ml, 6-OHDA-treated control = 100%) was “approximately 135%”. Also, the “Negative Geotaxis Reflex test, significance vs control and FGLcontrol groups” value in the experiment with rat pups [3] was “statistically significant effects”.
